Measurements: ChEMBL document CHEMBL2074369, “Interactions of HIV protease inhibitors with a human organic cation transporter in a mammalian expression system” (Drug Metab Dispos, 2000)

Assays:
[1] = molecular target: Solute carrier family 22 member 1, Homo sapiens (UniProt O15245); test: TP_TRANSPORTER: inhibition of TEA uptake (TEA: 10 uM) in OCT1-expressing HeLa cells
[2] = molecular target: T1, Solute carrier family 22 member 1 (Rattus norvegicus, UniProt Q63089); test: TP_TRANSPORTER: uptake in OCT1-expressing HeLa cells; type: functional, cell-based; settings: human
T1 sequence (Q63089 whole entry): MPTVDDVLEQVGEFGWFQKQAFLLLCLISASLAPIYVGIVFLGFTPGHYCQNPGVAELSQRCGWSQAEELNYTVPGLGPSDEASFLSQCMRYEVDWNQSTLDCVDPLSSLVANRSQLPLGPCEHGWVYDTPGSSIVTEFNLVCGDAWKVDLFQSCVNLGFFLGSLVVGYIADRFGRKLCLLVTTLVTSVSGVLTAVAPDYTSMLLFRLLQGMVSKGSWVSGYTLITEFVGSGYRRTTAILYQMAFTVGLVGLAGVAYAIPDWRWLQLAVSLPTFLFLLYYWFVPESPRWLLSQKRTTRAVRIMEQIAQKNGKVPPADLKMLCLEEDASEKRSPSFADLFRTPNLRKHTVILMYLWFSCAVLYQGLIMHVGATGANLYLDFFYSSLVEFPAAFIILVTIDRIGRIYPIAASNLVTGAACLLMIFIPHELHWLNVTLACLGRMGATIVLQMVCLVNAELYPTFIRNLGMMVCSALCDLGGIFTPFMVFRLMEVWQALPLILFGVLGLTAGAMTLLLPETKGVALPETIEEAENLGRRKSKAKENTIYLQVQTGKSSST

Chain of Solute carrier family 22 member 1, Homo sapiens (O15245 whole entry, looked up): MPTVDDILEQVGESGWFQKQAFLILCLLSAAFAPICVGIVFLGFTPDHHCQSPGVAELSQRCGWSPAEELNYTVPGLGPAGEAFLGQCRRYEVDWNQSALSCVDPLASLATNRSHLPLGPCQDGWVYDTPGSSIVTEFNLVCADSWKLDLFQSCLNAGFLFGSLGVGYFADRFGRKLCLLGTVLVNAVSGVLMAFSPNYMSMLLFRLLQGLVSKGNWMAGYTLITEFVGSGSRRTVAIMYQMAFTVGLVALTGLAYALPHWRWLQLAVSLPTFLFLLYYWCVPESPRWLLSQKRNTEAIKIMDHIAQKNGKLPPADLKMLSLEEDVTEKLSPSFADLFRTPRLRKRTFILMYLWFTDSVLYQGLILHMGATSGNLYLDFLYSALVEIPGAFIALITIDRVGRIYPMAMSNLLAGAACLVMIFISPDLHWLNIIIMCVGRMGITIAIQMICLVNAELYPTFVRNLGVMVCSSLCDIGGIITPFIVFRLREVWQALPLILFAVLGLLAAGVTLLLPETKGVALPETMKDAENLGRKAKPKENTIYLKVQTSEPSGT

**Q.** How did the IC50 [1] turn out when `CC(C)(C)NC(=O)[C@@H]1CN(Cc2cccnc2)CCN1C[C@@H](O)C[C@@H](Cc1ccccc1)C(=O)N[C@H]1c2ccccc2C[C@H]1O` [INDINAVIR] was run?
**A.** Its IC50 is 61.7 µM.

**Q.** With `CC(C)(C)NC(=O)[C@@H]1C[C@@H]2CCCC[C@@H]2CN1C[C@@H](O)[C@H](Cc1ccccc1)NC(=O)[C@H](CC(N)=O)NC(=O)c1ccc2ccccc2n1` [SAQUINAVIR] as the compound, how does the Activity [2] read?
**A.** Its Activity is “is not a substrate [-]”.

**Q.** What about the IC50 [1] of the same compound?
**A.** Its IC50 is 8.26 µM.

**Q.** `Cc1c(O)cccc1C(=O)N[C@@H](CSc1ccccc1)[C@H](O)CN1C[C@H]2CCCC[C@H]2C[C@H]1C(=O)NC(C)(C)C` [NELFINAVIR] was tested. Which IC50 [1] did it give?
**A.** Its IC50 is 21.8 µM.
